Measured values as given in patent publication US11226337B2, “Chemoproteomic profiling of protein electrophilic and oxidative post-translational modifications” (Zenagem, LLC, priority 2017, dated 2022).

Legend:
Experiment in all cases: SILAC RP-ABPP
Type in all cases: cell-based
[1] = target: T1, ALDOC Fructosebisphosphate aldolase C (P09972) (Homo sapiens, UniProt P09972); settings: SILAC H/L, HEK293T
T1 construct: shared by both the endogenous and recombinant forms of these proteins; endogenous in cells; host or cells: HEK293T and MDA-MB-231
T1 sequence (P09972 1-364): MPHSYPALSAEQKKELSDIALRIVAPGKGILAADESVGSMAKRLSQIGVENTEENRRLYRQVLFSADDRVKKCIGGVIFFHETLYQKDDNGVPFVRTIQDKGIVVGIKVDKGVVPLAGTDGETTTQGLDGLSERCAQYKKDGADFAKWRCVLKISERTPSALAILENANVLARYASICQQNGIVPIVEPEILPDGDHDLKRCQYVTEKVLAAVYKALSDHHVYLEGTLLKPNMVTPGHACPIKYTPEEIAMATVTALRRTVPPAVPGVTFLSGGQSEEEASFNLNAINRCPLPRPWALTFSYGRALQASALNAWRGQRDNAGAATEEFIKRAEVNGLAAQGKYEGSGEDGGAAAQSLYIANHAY
Protocol: (§1) For MS-based experiments, labelling was performed in a similar manner as described above in Example 2, maintaining the same concentrations of probes. Modifications to this protocol included using isotopically ‘light’ and ‘heavy’ SILAC cells that were also grown to near complete confluence prior to treatment. Isotopically light cells were treated with the non-clickable hydrazine probe (at the same concentration as the probe in ‘enrichment’ experiments) or the probe in the presence of 10-fold excess non-clickable hydrazine probe as a competitor (in ‘competition’ experiments). Isotopically heavy cells were treated with the probe for both types of experiments. These treatments were performed in non-SILAC media. Following treatments, cells were washed with cold PBS to remove the probe-containing media, harvested by scraping, collected by centrifugation (1,400 g, 3 min, 4° C.), washed again by resuspension in cold PBS and frozen as pellets at −80° C. until use.
(§2) The fractionated equimolar mixture of heavy and light soluble proteomes (1-1.5 mg) was diluted to 1 mL in PBS. Click reactions were scaled accordingly (except for biotin-azide) to maintain final concentrations of 0.1 mM TBTA, 1 mM CuSO4, 100 μM biotin-azide (10 mM in DMSO) and 1 mM TCEP. The mixture was vortexed and placed on a rotator at ambient temperature for 1 hour. Sequential addition of and mixture with pre-chilled methanol (MeOH, 2 mL), chloroform (CHCl3, 0.5 mL) and PBS (1 mL) on ice quenched the reaction. The precipitated proteome was centrifuged (5,000 g, 10 min, 4° C.) to fractionate the protein interphase from the organic and aqueous solvent layers. The protein pellet was washed with cold 1:1 MeOH:CHCl3 (3×1 mL), mildly sonicated in cold 4:1 MeOH:CHCl3 (2.5 mL) and pelleted once more by centrifugation (5,000 g, 10 min, 4° C.) to ensure click reagents were efficiently removed.
(§3) Heavy and light parent ion chromatograms associated with successfully identified peptides were extracted and compared using CIMAGE software as previously described^69. At least one ion of a co-eluting heavy-light pair must be accurately identified from a fragmentation event that occurred within the retention time window (±10 min) of parent ion elution. To ensure that the correct pair of peaks is quantified, chromatograms are extracted within a 10 ppm error tolerance of the predicted m/z, the signal-to-noise ratio must be >2.5 and the ‘co-elution correlation score’ and ‘envelope correlation score’ must have R^2 values ≥0.8. In addition, peptides detected as ‘singletons,’ where only the heavy ion of a peptide pair was identified, but for which passed all other filtering parameters, are given a default assigned ratio of ‘20,’ which is defined as any measured ratio that is ≥20.
(§4) To further eliminate false positives and any stochastic variability in the data, protein ratios were then determined by the median peptide ratio derived from three or more unique quantified peptides. Protein ratios that complied with these criteria from a single experiment were then averaged with ratios acquired from ≥3 replicates to provide final values for each type of experiment in both cell lines with both probes. […] Most importantly, there are no robustly measured ratios for proteins identified as probe 1 targets that had measured ratios of ˜1 with probe 2. Probe targets in HEK293T and MDA-MB-231 cells represent data combined from ≥3 independent biological replicates with each cell type performed with several independent batches of synthesized probes over a period of almost two years. […]

[2] = target: T2, ALDH1B1 Aldehyde dehydrogenase X (P30837) (Homo sapiens, UniProt P30837); settings: SILAC H/L, HEK293T
T2 construct: shared by both the endogenous and recombinant forms of these proteins; endogenous in cells; host or cells: HEK293T and MDA-MB-231
T2 sequence (P30837 18-517): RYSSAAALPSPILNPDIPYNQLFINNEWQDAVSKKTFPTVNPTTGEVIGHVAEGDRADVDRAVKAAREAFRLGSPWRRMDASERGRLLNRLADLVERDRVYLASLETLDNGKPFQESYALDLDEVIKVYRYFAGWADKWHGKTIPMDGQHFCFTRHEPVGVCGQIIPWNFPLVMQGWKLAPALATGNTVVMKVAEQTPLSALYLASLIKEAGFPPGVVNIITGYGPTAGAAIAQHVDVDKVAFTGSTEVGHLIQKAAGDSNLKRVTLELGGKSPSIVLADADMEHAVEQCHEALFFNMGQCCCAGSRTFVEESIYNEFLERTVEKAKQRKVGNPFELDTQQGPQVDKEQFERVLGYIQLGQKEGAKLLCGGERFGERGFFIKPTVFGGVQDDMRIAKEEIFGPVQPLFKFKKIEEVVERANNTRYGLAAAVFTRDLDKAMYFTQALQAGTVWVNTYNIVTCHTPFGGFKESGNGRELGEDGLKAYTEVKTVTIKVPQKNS
Protocol: as §1, §2, §3, §4

[3] = target: T3, LGALS3BP Galectin3binding protein (Q08380) (Homo sapiens, UniProt Q08380); settings: SILAC H/L, MDA-MB-231
T3 construct: In Situ Labelling of Cells with Hydrazine Probes for MS Experiments; endogenous in cells
T3 sequence (Q08380 19-585): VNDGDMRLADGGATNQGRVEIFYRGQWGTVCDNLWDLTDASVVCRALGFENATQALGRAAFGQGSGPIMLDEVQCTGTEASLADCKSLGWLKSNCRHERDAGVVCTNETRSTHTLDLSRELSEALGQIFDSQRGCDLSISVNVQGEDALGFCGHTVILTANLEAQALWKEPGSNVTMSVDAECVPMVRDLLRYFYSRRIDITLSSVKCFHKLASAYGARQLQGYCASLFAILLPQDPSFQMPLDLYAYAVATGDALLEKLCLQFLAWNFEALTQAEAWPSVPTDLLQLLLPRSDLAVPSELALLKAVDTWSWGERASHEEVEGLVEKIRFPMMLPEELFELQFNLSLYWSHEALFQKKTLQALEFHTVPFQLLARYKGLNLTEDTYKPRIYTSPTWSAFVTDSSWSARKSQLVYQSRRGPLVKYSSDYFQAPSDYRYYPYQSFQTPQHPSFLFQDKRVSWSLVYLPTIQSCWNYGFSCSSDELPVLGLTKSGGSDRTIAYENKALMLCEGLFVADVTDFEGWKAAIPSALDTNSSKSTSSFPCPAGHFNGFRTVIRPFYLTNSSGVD
Protocol: as §1, §2, §3, §4

| Compound | enrichment ratioavg ([1]; probe 1 3 mM 0.5 h vs probe 3) | competition ratioavg ([1]; probe 1 vs probe 1+10x probe 3) | enrichment ratioavg ([2]; probe 1 3 mM 0.5 h vs probe 3) | competition ratioavg ([2]; probe 1 vs probe 1+10x probe 3) | enrichment ratioavg ([3]; probe 1 3 mM 0.5 h vs probe 3) | competition ratioavg ([3]; probe 1 vs probe 1+10x probe 3) | enrichment ratioavg ([1]; probe 2 1 mM 0.5 h vs probe 4) | competition ratioavg ([1]; probe 2 vs probe 2+10x probe 4) | enrichment ratioavg ([2]; probe 2 1 mM 0.5 h vs probe 4) | competition ratioavg ([2]; probe 2 vs probe 2+10x probe 4) | enrichment ratioavg ([3]; probe 2 1 mM 0.5 h vs probe 4) | competition ratioavg ([3]; probe 2 vs probe 2+10x probe 4) |
| --- | --- | --- | --- | --- | --- | --- | --- | --- | --- | --- | --- | --- |
| C#CCNN.Cl [probe 1, prop-2-yn-1-ylhydrazine hydrochloride] | 16 | 3 | 6 | 3 | 7 | 3 |  |  |  |  |  |  |
| C#CCCNC(=O)c1ccc(NN)cc1.Cl [probe 2, N-(but-3-yn-1-yl)-4-hydrazinylbenzamide hydrochloride] |  |  |  |  |  |  | 14 | 5 | 11 | 5 | 7 | 3 |
